From PubChem BioAssay AID248 (DTP/NCI, 2004)
Where “and” joins values, the source holds several entries; their conditions need not be identical. Identical values can stand only once. Toxic doses and inconclusive results are not listed. No stated cut-off is given here; in the data, active means T/C of 150% or more; inactive means T/C below 125%.

Test system: L1210 leukemia ip in BDF1 mice, survival T/C
Experiment: NCI In Vivo Anticancer Drug Screen. Data for tumor model L1210 Leukemia (intraperitoneal) in B6D2F1 (BDF1) mice
Settings: endpoint: mean survival time, higher = longer survival
Method in brief: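 Tumor cells were implanted, animals were treated, and survival was followed. The result divides the treated measurement by the vehicle-control measurement.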

[1] = dose: 100.0 mg/kg/injection, schedule: Q01DX001 (ip), vehicle: Klucel (hydroxypropylcellulose) (HPC)
[2] = dose: 100.0 mg/kg/injection, schedule: Q01DX009 (ip), vehicle: Klucel (hydroxypropylcellulose) (HPC)
[3] = dose: 200.0 mg/kg/injection, schedule: Q01DX001 (ip), vehicle: Klucel (hydroxypropylcellulose) (HPC)
[4] = dose: 200.0 mg/kg/injection, schedule: Q01DX009 (ip), vehicle: Klucel (hydroxypropylcellulose) (HPC)
[5] = dose: 400.0 mg/kg/injection, schedule: Q01DX001 (ip), vehicle: Klucel (hydroxypropylcellulose) (HPC)
[6] = dose: 400.0 mg/kg/injection, schedule: Q01DX009 (ip), vehicle: Klucel (hydroxypropylcellulose) (HPC)
[7] = dose: 100.0 mg/kg/injection, schedule: Q01DX001 (ip), vehicle: other
[8] = dose: 200.0 mg/kg/injection, schedule: Q01DX001 (ip), vehicle: other
[9] = dose: 400.0 mg/kg/injection, schedule: Q01DX001 (ip), vehicle: other
[10] = dose: 100.0 mg/kg/injection, schedule: Q04DX003 (ip), vehicle: saline with Tween-80
[11] = dose: 200.0 mg/kg/injection, schedule: Q04DX003 (ip), vehicle: saline with Tween-80
[12] = dose: 100.0 mg/kg/injection, schedule: Q01DX001 (ip), vehicle: carboxymethylcellulose (CMC)
[13] = dose: 200.0 mg/kg/injection, schedule: Q01DX001 (ip), vehicle: carboxymethylcellulose (CMC)
[14] = dose: 400.0 mg/kg/injection, schedule: Q01DX001 (ip), vehicle: carboxymethylcellulose (CMC)
[15] = dose: 100.0 mg/kg/injection, schedule: Q01DX009 (ip), vehicle: saline with Tween-80
[16] = dose: 200.0 mg/kg/injection, schedule: Q01DX009 (ip), vehicle: saline with Tween-80
[17] = dose: 400.0 mg/kg/injection, schedule: Q01DX009 (ip), vehicle: saline with Tween-80
[18] = dose: 100.0 mg/kg/injection, schedule: Q01DX009 (ip), vehicle: saline
[19] = dose: 50.0 mg/kg/injection, schedule: Q01DX009 (ip), vehicle: Klucel (hydroxypropylcellulose) (HPC)
[20] = dose: 200.0 mg/kg/injection, schedule: Q04DX003 (ip), vehicle: Klucel (hydroxypropylcellulose) (HPC)
[21] = dose: 400.0 mg/kg/injection, schedule: Q04DX003 (ip), vehicle: saline with Tween-80
[22] = dose: 100.0 mg/kg/injection, schedule: Q04DX003 (ip), vehicle: Klucel (hydroxypropylcellulose) (HPC)
[23] = dose: 400.0 mg/kg/injection, schedule: Q04DX003 (ip), vehicle: Klucel (hydroxypropylcellulose) (HPC)
[24] = dose: 100.0 mg/kg/injection, schedule: Q01DX001 (ip), vehicle: saline
[25] = dose: 200.0 mg/kg/injection, schedule: Q01DX001 (ip), vehicle: saline
[26] = dose: 400.0 mg/kg/injection, schedule: Q01DX001 (ip), vehicle: saline

Measured: T/C

N#CC1CC2c3ccccc3C1([N+](=O)[O-])c1ccccc12 (stereo unspecified)
inactive: [1] 90 % of control | [2] 98 % of control | [3] 104 % of control | [4] 98 % of control | [5] 96 % of control | [6] 103 % of control

CCOC(=O)C(=CNc1ccc(Cl)cc1Cl)C(=O)OCC
inactive: [7] 93 % of control | [8] 101 % of control | [9] 101 % of control

O=C(COc1ccc(Cl)cc1)NC(CO)(CO)CO
inactive: dose: 100.0 mg/kg/injection, schedule: Q04DX002 (ip), vehicle: saline with Tween-80 103 % of control | dose: 200.0 mg/kg/injection, schedule: Q04DX002 (ip), vehicle: saline with Tween-80 103 % of control | dose: 400.0 mg/kg/injection, schedule: Q04DX002 (ip), vehicle: saline with Tween-80 103 % of control

[Se]c1ccnc([Se])n1
inactive: [10] 89 % of control | [11] 94 % of control

c1ccc(NCc2csc3ccccc23)cc1
inactive: [12] 98 % of control | [13] 88 % of control | [14] 98 % of control

CNS(=O)(=O)c1ccc(NC(=O)C(Cl)Cl)cc1
inactive: [7] 101 % of control | [15] 95 % of control | [8] 103 % of control | [16] 106 % of control | [9] 101 % of control | [17] 102 % of control

S=C(S)N1CCN(C(=S)S)CC1
inactive: dose: 25.0 mg/kg/injection, schedule: Q01DX009 (ip), vehicle: saline 108 % of control | dose: 50.0 mg/kg/injection, schedule: Q01DX009 (ip), vehicle: saline 103 % of control | [18] 92 % of control and 102 % of control | dose: 100.0 mg/kg/injection, schedule: Q04DX003 (ip), vehicle: saline 99 % of control | dose: 200.0 mg/kg/injection, schedule: Q04DX003 (ip), vehicle: saline 97 % of control

O=C(Nc1ccc2ncccc2c1)Nc1ccc2ncccc2c1
inactive: [19] 90 % of control | dose: 50.0 mg/kg/injection, schedule: Q04DX003 (ip), vehicle: Klucel (hydroxypropylcellulose) (HPC) 89 % of control | [2] 93 % of control | [4] 93 % of control | [20] 86 % of control

Nc1cccc2c1C(O)c1ccccc1-2 (stereo unspecified)
inactive: [10] 101 % of control | [11] 97 % of control | [21] 101 % of control

CC(=O)Oc1ccc2ccccc2c1CN(Cc1c(OC(C)=O)ccc2ccccc12)C(C)=O
inactive: [7] 96 % of control | [9] 93 % of control

Cc1nc2ccccc2nc1N1CCCC1
inactive: dose: 111.0 mg/kg/injection, schedule: Q01DX Z (ip), vehicle: methylcellulose (MC) 101 % of control | dose: 166.0 mg/kg/injection, schedule: Q01DX Z (ip), vehicle: methylcellulose (MC) 92 % of control | dose: 250.0 mg/kg/injection, schedule: Q01DX Z (ip), vehicle: methylcellulose (MC) 114 % of control

O=C(O)Cc1cc2c(cc1I)OCO2
inactive: [15] 98 % of control | [16] 104 % of control | [17] 109 % of control

CSc1nc(Cl)nc(SC)n1
inactive: [22] 96 % of control | [20] 96 % of control | [23] 96 % of control

CN1C(=O)NC(=O)C12CCNCC2
inactive: [24] 97 % of control | [25] 103 % of control | [26] 101 % of control

CCOC(=O)CCc1c[nH]c(C)c1C(=O)C(=O)OCC
inactive: [1] 95 % of control | [22] 93 % of control | [3] 98 % of control | [20] 102 % of control | [5] 95 % of control | [23] 96 % of control

Cc1nc(N)[nH]c(=O)c1CCCNS(=O)(=O)c1ccc(N)cc1
inactive: dose: 50.0 mg/kg/injection, schedule: Q01DX001 (ip), vehicle: saline 100 % of control | [24] 97 % of control | [25] 100 % of control | [26] 94 % of control

COc1cc(C(=O)O)ccc1N
inactive: [10] 102 % of control | [11] 104 % of control | [21] 102 % of control

Cc1[nH]nc(-c2cccnc2)c1N=NN(C)C
inactive: dose: 75.0 mg/kg/injection, schedule: Q01DX001 (ip), vehicle: saline 110 % of control | dose: 150.0 mg/kg/injection, schedule: Q01DX001 (ip), vehicle: saline 106 % of control | dose: 300.0 mg/kg/injection, schedule: Q01DX001 (ip), vehicle: saline 111 % of control

CC1(C)C2CC3C(C(=O)O)CCCC3(C2)C1Br (stereo unspecified)
inactive: [2] 103 % of control | [22] 87 % of control | [4] 106 % of control | [20] 90 % of control | [6] 97 % of control | [23] 89 % of control

COc1ccc(C=O)cc1OCCCCCOc1cc(C=O)ccc1OC
inactive: [19] 86 % of control | [2] 101 % of control | [4] 90 % of control

O=c1c2[nH]cnc2ncn1Cc1ccccc1
inactive: [1] 102 % of control | [3] 98 % of control | [5] 109 % of control

CCCCCCCCCCCCCCN=C(N)N
inactive: dose: 50.0 mg/kg/injection, schedule: Q01DX001 (ip), vehicle: carboxymethylcellulose (CMC) 105 % of control | [12] 97 % of control | [13] 97 % of control | [14] 94 % of control

Cc1cc(C(C)(C)C)ccc1S(=O)(=O)/C=C/c1ccccc1
inactive: dose: 100.0 mg/kg/injection, schedule: Q01DX001 (ip), vehicle: acetone 95 % of control | [18] 93 % of control | dose: 200.0 mg/kg/injection, schedule: Q01DX001 (ip), vehicle: acetone 97 % of control | dose: 200.0 mg/kg/injection, schedule: Q01DX009 (ip), vehicle: saline 88 % of control | dose: 400.0 mg/kg/injection, schedule: Q01DX001 (ip), vehicle: acetone 92 % of control | dose: 400.0 mg/kg/injection, schedule: Q01DX009 (ip), vehicle: saline 88 % of control

COc1ccc(OC)c(CC(C)=O)c1
inactive: [12] 93 % of control | [13] 101 % of control | [14] 95 % of control

CC(C)=CC1CC(C)C2(CCC3(C)CC4C(C(=O)CC4(C)O)/C(C=O)=C\CC32)O1 (stereo unspecified)
inactive: dose: 5.0 mg/kg/injection, schedule: Q01DX001 (ip), vehicle: saline 103 % of control | dose: 10.0 mg/kg/injection, schedule: Q01DX001 (ip), vehicle: saline 97 % of control | dose: 20.0 mg/kg/injection, schedule: Q01DX001 (ip), vehicle: saline 97 % of control | dose: 40.0 mg/kg/injection, schedule: Q01DX001 (ip), vehicle: saline 97 % of control | dose: 80.0 mg/kg/injection, schedule: Q01DX001 (ip), vehicle: saline 109 % of control

CC(C)(C)[O][Pb]([c]1ccccc1)([c]1ccccc1)[c]1ccccc1
inactive: dose: 1.56 mg/kg/injection, schedule: Q01DX009 (ip), vehicle: saline with Tween-80 91 % of control

CCOC(=O)N=C=O
inactive: dose: 100.0 mg/kg/injection, schedule: Q01DX009 (ip), vehicle: water 103 % of control | dose: 100.0 mg/kg/injection, schedule: Q04DX003 (ip), vehicle: water 95 % of control | dose: 200.0 mg/kg/injection, schedule: Q01DX009 (ip), vehicle: water 100 % of control | dose: 200.0 mg/kg/injection, schedule: Q04DX003 (ip), vehicle: water 101 % of control | dose: 400.0 mg/kg/injection, schedule: Q04DX003 (ip), vehicle: water 101 % of control

O=Cc1[nH]c(=S)[nH]c(=O)c1Cc1ccccc1Cl
inactive: [22] 101 % of control | [20] 98 % of control | [23] 97 % of control

Cc1ccc(C#N)cc1
inactive: [15] 98 % of control | [10] 94 % of control | [16] 93 % of control | [11] 92 % of control | [17] 98 % of control | [21] 96 % of control

NC(Cc1ccc(O)cc1)C(=O)N/N=C/c1ccc(N(CCCl)CCCl)cc1 (stereo unspecified)
inactive: dose: 25.0 mg/kg/injection, schedule: Q01DX009 (ip), vehicle: Klucel (hydroxypropylcellulose) (HPC) 101 % of control | [19] 113 % of control | [2] 106 % of control | [22] 107 % of control | [20] 102 % of control
